Measured values taken from patent publication US20120329721A1, “MEANS FOR PREVENTING AND TREATING CELLULAR DEATH AND THEIR BIOLOGICAL APPLICATIONS” (CHIESI FARMACEUTICI S.P.A., priority 2003, published 2012).
Like-named read-outs stand apart in the source and are kept apart here. Starred links: 1 amine or outer side, 2 acyl side, 3 side chain; linkers in the order of their positions; H or OH if unused. Positions of bridges follow the written chain, without caps; N, C: chain ends. Non-standard residues stand in square brackets, D forms with d. Residues, ends and D or L forms follow the SMILES beside them. Chains are numbered I, II in the order given. *: point of attachment. Actinocin(9to1) = Cc1c2oc3c(C)ccc(C(=O)[*:1])c3nc-2c(C(=O)[*:2])c(N)c1=O; X1 = COC(=O)C[C@H](N*)C(=O)COc1c(F)cccc1F; Sta = CC(C)C[C@H](N)[C@@H](O)CC(=O)O; Quinaldoyl = O=C(c1ccc2ccccc2n1)*; NMeV = CN[C@H](C(=O)O)C(C)C; Isovaleryl = CC(C)CC(=O)*; Cbz = O=C(OCc1ccccc1)*; Sar = CNCC(=O)O; CH2F = FC*

Experiments:
[1] = test system: primary cortical neurons; type: cell-based
[2] = molecular target: T1, human recombinant caspase-2 (Homo sapiens, UniProt P42575); assay: In vitro VDVAD-AMC cleavage by recombinant caspase-2; type: biochemical; conditions: inhibitor 2 μM, 50 μM VDVAD-AMC, caspase-2 125 U, 30 min at 37° C.
T1 construct: purchased BIOMOL
T1 sequence (P42575 170-325 limits assumed): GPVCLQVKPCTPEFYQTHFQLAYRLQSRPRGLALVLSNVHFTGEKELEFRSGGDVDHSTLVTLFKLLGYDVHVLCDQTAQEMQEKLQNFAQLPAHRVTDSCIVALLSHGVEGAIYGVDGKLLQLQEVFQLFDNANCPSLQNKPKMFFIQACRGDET
T1 sequence (P42575 348-452 limits assumed): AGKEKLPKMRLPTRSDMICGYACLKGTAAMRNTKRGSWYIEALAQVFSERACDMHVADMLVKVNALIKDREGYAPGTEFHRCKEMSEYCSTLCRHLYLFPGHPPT
Method: Activity of human recombinant caspase-2 (BIOMOL QuantiZyme™ Assay System) was assessed in 100 μl assay buffer (50 mM HEPES, pH 7.4, 100 mM NaCl, 0.1% CHAPS, 10 mM DTT, 1 mM EDTA, 10% glycerol).

[3] = test system: Jurkat cells; assay: VP16-induced cell death of Jurkat cells, cytoprotection assay; type: cell-based, human; conditions: VP16 10 μM, 7-8 hrs; inhibitors 50 μM
[4] = test system: caspase-3; assay: In cellula caspase-3 like activity (FAM-DEVD-FMK FLICA or anti-cleaved caspase-3 antibody) in SD-neurons; type: cell-based, mouse; conditions: 24 hr-SD; inhibitors 100 μM (BA 25 μM)
[5] = test system: caspase-9; assay: In cellula caspase-9 like activity (FAM-LEHD-FMK FLICA) in SD-neurons; type: cell-based, mouse; conditions: 24 hr-SD; inhibitors 100 μM (BA 25 μM)
Method: Neurons were incubated with 1/150 of the DMSO stock solution of the FLICA for 1 hr at 37° C. 7-AAD and Hoechst were added during the last 15 min. Then neurons were washed three times in washing buffer (CaspaTag™ Kit). […] Cleaved caspase-3 was evidenced in cellula by immunodetection using Phycoerythrin (PE)-conjugated polyclonal antibodies (Beckton Dickinson). Neurons were stained by 7-AAD, trypsinized and fixed in PBS containing 1% PFA and 20 μg/ml Actinomycin D (AD) for 20 min. […] After washings in PBS, PE-related fluorescence was analysed on the cytometer (Fl-2 channel). Z-val-Ala-Asp(OMe)-FMK (Z-VAD-FMK), Quinoline-Val-Asp (OMe)-CH2-O-Ph (Q-VD-OPH), Z-DEVD-FMK ([…], ICN) and Z-LEHD-FMK ([…], all purchased from ICN (Orsay, France), and 4-(2-Aminoethyl)benzenesulfonyl fluoride (AEBSF, Pefabloc SC, Roche, Meylan, France) were added at 100 μM at the initiation of serum deprivation. Sulforhodamine-DEVD-FMK, (CaspaTag™ Red Activity Kit) permitted to detect activated caspase-3 and FITC-Annexin V. Neurons were incubated with 1/900 of the DMSO stock solution of the FLICA, and 1× FITC-annexin V in 200 μl of annexin-buffer for 30 min at 37° C. Then neurons were washed three times in a buffer composed of 50% washing buffer and 50% annexin-buffer. […] For FM, FLICA was excited through the BP515-560 filter and its fluorescence was collected through the LP590 long pass emission filter.
Neurons were loaded with 1 μM JC-1 for 30 min at 37° C. […] JC-1 monomers were detected in the Fl-1 channel by FC. […] Activated caspase-2, -3, -8 and -9 were detected using specific FAM-conjugated peptides (called Fluorochrome Labeled Inhibitor of Caspase, FLICA: CaspaTag™ fluorescein Caspase Activity Kits, Q-Biogen, Illkirch, France; ApoFluor™ Caspase Detection Kits, ICN, Orsay, France): FAM-VDVAD-FMK, FAM-DEVD-FMK, FAM-LETD-FMK and FAM-LEHD-FMK, respectively. Neurons were incubated with FLICAs (1:150, CaspaTag™ or 1:500, ApoFluor™) for 1 hr at 37° C., then washed three times in washing buffer. […] Phosphatidylserine (PS) exposure to the outer leaflet of the plasma membrane was detected through the fixation of FITC conjugated-annexin V (Immunotech).

[6] = test system: primary cortical neurons; assay: Real-time FC and fixed-time FM detection of ΔΨm and PMP in neurons treated with neurotoxic molecules; type: cell-based, mouse; conditions: for ΔΨm and PMP state of non-trypsinized neurons (FM): FM co-detection JC-1/7-AAD, 45 minutes (mClCCP 100 μM, 30 min)
[7] = test system: neonatal ischemic brain injury in 7 day-old rats
[8] = SD model, compound added at the start of SD at the concentration of column '[ ], μM' (first concentration/target where two are printed)

## Cn1cnc(N)c2ncnc1-2 [3-Methyladenine]
[1]; [8]
  Survival: No

## CC(=O)N[C@H](C(=O)N[C@@H](CC(=O)O)C(=O)N[C@H](C(=O)N[C@@H](C)C(=O)N[C@H](C=O)CC(=O)O)C(C)C)C(C)C [Ac-VDVAD-Cho] (Ac-VDVAD-aldehyde)
[2]
  inhibition of VDVAD-AMC cleavage by recombinant caspase-2: blocked

## Cc1c2oc3c(C)ccc(C(=O)N[C@@H]4C(=O)N[C@H](C(C)C)C(=O)N5CCC[C@H]5C(=O)N(C)CC(=O)N(C)[C@@H](C(C)C)C(=O)O[C@@H]4C)c3nc-2c(C(=O)N[C@@H]2C(=O)N[C@H](C(C)C)C(=O)N3CCC[C@H]3C(=O)N(C)CC(=O)N(C)[C@@H](C(C)C)C(=O)O[C@@H]2C)c(N)c1=O [Actinomycin D] (I: T[dV]P[Sar][NMeV] / II: T[dV]P[Sar][NMeV]; ester I:1-I:C, II:1-II:C; linker I:N-II:N via Actinocin(9to1))
[1]
  survival / protection of SD-neurons against cell death (apoptosis hallmarks overall): promote survival
[1]; [8]
  Survival: Yes
[3]
  terminal nuclear alterations and PMP in VP16-treated Jurkat cells: prevent neither ΔΨm loss nor PMP
  ΔΨm loss in VP16-treated Jurkat cells: prevent neither ΔΨm loss nor PMP

## CC(C)[C@H](CO)Nc1nc(Nc2cc(N)cc(Cl)c2)c2ncn(C(C)C)c2n1 [Aminopurvalanol]
[1]; [8]
  Survival: No

## CC(=O)Oc1ccccc1C(=O)O [Aspirin]
[1]; [8]
  Survival: No

## CO[C@H](C/C=C\C=C\CC/C=C/C[C@H](C)/C=C/C(=C\C(=O)O)CC(=O)O)/C(C)=C\C=C(/C)C(=O)O [BA, bongkrekic acid]
[1]
  survival / protection of SD-neurons against cell death (apoptosis hallmarks overall): Neuroprotection
[1]; 24 hr-SD, JC-1, inhibitors 100 μM (BA 25 μM)
  ΔΨm loss (drop) in SD-neurons: inhibited
[1]; 24 hr-SD, inhibitors 100 μM (BA 25 μM)
  degradation phase of apoptosis: PS exposure, nuclear apoptosis (NA), PMP in SD-neurons: strongly prevent
[4]
  caspase-3 like activity / activation in SD-neurons: strongly prevent
[5]
  caspase-9 like activity / activation in SD-neurons: prevents caspase-9 like activation
[3]
  terminal nuclear alterations and PMP in VP16-treated Jurkat cells: attenuates
  ΔΨm loss in VP16-treated Jurkat cells: attenuates

## CC(=O)OCOC(=O)CN(CC(=O)OCOC(C)=O)c1ccccc1OCCOc1ccccc1N(CC(=O)OCOC(C)=O)CC(=O)OCOC(C)=O [BAPTA-AM, acetoxymethyl ester of 1,2-bis(2-aminophenoxy)ethane-N,N,N′,N′-tetraacetic acid]
[1]
  Survival: No

## CO/C1=C\C(C)=C\[C@@H](C)[C@@H](O)[C@@H](C)C/C(C)=C/C=C/[C@H](OC)[C@@H]([C@@H](C)[C@@H](O)[C@H](C)[C@@]2(O)C[C@@H](O)[C@H](C)[C@@H](C(C)C)O2)OC1=O [Bafilomycin A1]
[1]; [8]
  Survival: No

## C[C@@H]1C[C@@H]([C@H](O)CC2CC(=O)NC(=O)C2)C(=O)[C@@H](C)C1 [Cycloheximide]
[1]
  survival / protection of SD-neurons against cell death (apoptosis hallmarks overall): promote survival
[1]; [8]
  Survival: Yes
[3]
  terminal nuclear alterations and PMP in VP16-treated Jurkat cells: prevent neither ΔΨm loss nor PMP
  ΔΨm loss in VP16-treated Jurkat cells: prevent neither ΔΨm loss nor PMP

## O=S(=O)([O-])c1cc(N=C=S)ccc1C=Cc1ccc(N=C=S)cc1S(=O)(=O)[O-].[Na+].[Na+] [DIDS, 4,4′-Diisothiocyanastilbene-2,2′-disulfonic acid disodium salt]
[1]; [8]
  Survival: No

## CCCCCCCCCCC1=C(C)C(=O)C(OC)=C(OC)C1=O [Decyl-Ubiquinone]
[1]; [8]
  Survival: No

## O=c1c(-c2ccc(O)cc2)coc2cc(O)cc(O)c12 [Genistein]
[1]
  Survival: No

## CC1CNCCN1S(=O)(=O)c1cccc2cnccc12 (stereo not shown) [H-7]
[1]; [8]
  Survival: No

## CCC(=C/[C@H](C)C/C=C/C(C)=C/[C@@H](C)C(=O)[C@@H](C)[C@H](O)[C@@H](C)C/C(C)=C/C(=O)O)/C=C/[C@@H]1OC(=O)C=C[C@@H]1C [Leptomycin B]
[1]; [8]
  Survival: No

## CN1CC=C(c2ccccc2)CC1 [MPTP, 1-methyl-4-phenyl-1,2,3,6-tetrahydropyridine]
[6]
  ΔΨm and PMP state of non-trypsinized neurons (FM): most neurons are ΔΨm low without any sign of PMP
[6]; real-time FC, after 15 minutes of treatment
  ΔΨm low neurons: 49.6%

## CC(=O)N[C@@H](CS)C(=O)O [N-Acetyl-Cystein]
[1]; [8]
  Survival: No

## C=C1[C@@H](O)[C@@H]2O[C@]3(CC[C@H](/C=C/[C@@H](C)[C@@H]4CC(C)=C[C@@]5(O[C@H](C[C@@](C)(O)C(=O)O)CC[C@H]5O)O4)O3)CC[C@H]2O[C@@H]1[C@@H](O)C[C@H](C)[C@H]1O[C@@]2(CCCCO2)CC[C@H]1C [Okadaic acid]
[1]; [8]
  Survival: No

## COc1cccc(-c2cc(=O)c3ccccc3o2)c1N [PD 98059]
[1]; [8]
  Survival: No

## CC(C)CC(=O)N[C@H](C(=O)N[C@H](C(=O)N[C@@H](CC(C)C)[C@@H](O)CC(=O)N[C@@H](C)C(=O)N[C@@H](CC(C)C)[C@@H](O)CC(=O)O)C(C)C)C(C)C [Pepstatin] (Isovaleryl-VV[Sta]A[Sta]-OH)
[1]; [8]
  Survival: No

## COC(=O)C[C@H](NC(=O)[C@H](C)NC(=O)[C@@H](NC(=O)[C@H](CC(=O)OC)NC(=O)[C@@H](NC(=O)c1ccc2ccccc2n1)C(C)C)C(C)C)C(=O)COc1c(F)cccc1F [Q-VDVAD-OPH, Quinolinylcarnonyl-L-Valinyl-L-Aspartyl (methyl ester)-X-Vanilyl-L-Alaninyl-L-Aspartyl (methyl ester) 2,6-difluorophenyl ester] (Quinaldoyl-VD(OMe)VA-X1)
[1]
  survival / protection of SD-neurons against cell death (apoptosis hallmarks overall): promotes survival of cortical neurons
[2]
  inhibition of VDVAD-AMC cleavage by recombinant caspase-2: blocked
[7]; single i.p. dose before ischemia, 48 hours, mean ±SEM
  infarct volume (% damage in the lesioned ipsilateral hemisphere): 5.7±2.3%
[7]; single i.p. dose before the ischemic onset, 48 hours after ischemia, vs ischemic control
  reduction in infarct volume: 74%
[7]; single i.p. dose, 48 hours
  animals (of the 12 studied) with a very marked smaller infarct: 8
  mean infarct of the four other animals: 16.5±1.32%
  median infarct of the 8 animals with a very marked smaller infarct: 0.5%
[7]; single i.p. dose, 48 hrs after ischemia
  animals that exhibited no infarct: 8

## CC[C@H](CO)Nc1nc(NCc2ccccc2)c2ncn(C(C)C)c2n1 [Roscovitine]
[1]
  Survival: No

## Oc1ccc(-c2nc(-c3ccncc3)c(-c3ccc(F)cc3)[nH]2)cc1 [SB 202190]
[1]; [8]
  Survival: No

## Cc1c(C)c2c(c(C)c1O)CCC(C)(C(=O)O)O2 (stereo not shown) [Trolox ®]
[1]; [8]
  Survival: No

## CCO [ethanol]
[6]
  ΔΨm and PMP state of non-trypsinized neurons (FM): induces a rapid PMP
[6]; real-time FC, after 5 minutes
  PMP: 98%
  ΔΨm loss: 75%

## N[C@@H](CCC(=O)N[C@@H](CS)C(=O)NCC(=O)O)C(=O)O [glutathion]
[1]; [8]
  Survival: No

## N#CC(C#N)=NNc1cccc(Cl)c1 [mClCCP, carbonyl cyanide m-chlorophenylhydrazone]
[6]
  ΔΨm and PMP state of non-trypsinized neurons (FM): induces ΔΨm disruption
[6]; real-time FC, 100 μM
  time of treatment at which ΔΨm loss of neuronal population is maximal: 2 min

## O=C(NC(Cc1ccccc1)C(=O)NC(Cc1ccccc1)C(=O)CF)OCc1ccccc1 (stereo not drawn) [z-FF-fmk, N-benzyloxycarbonyl-Phe-Phe-fluoromethylketone] (Cbz-Phe-Phe-CH2F; configuration not given here)
[1]; [8]
  Survival: No

## N-benzyloxycarbonyl-Phe-Ala-fluoromethylketone [z-FA-fmk]
[1]; [8]
  Survival: No

## Ruthenium Red
[1]; [8]
  Survival: No
